# Assay results taken from US20240018135A1, “COMPOUND HAVING INHIBITORY ACTIVITY AGAINST O-GLUSACASE AND USE THEREOF” (MEDIFRON DBT INC., priority 2020, published 2024).
# Assays:
# [1] = target: Human OGA (recombinant hOGA protein) (Homo sapiens (Human), UniProt O60502); experiment: Human OGA enzyme activity assay (fluorescence, 4-Methylumbelliferyl N-acetyl-β-D-glucosaminide substrate); type: biochemical; conditions: for IC50: Table 1; for % of inhibition: Table 1, test concentration not given
# Human OGA (recombinant hOGA protein), sequence (O60502 whole entry): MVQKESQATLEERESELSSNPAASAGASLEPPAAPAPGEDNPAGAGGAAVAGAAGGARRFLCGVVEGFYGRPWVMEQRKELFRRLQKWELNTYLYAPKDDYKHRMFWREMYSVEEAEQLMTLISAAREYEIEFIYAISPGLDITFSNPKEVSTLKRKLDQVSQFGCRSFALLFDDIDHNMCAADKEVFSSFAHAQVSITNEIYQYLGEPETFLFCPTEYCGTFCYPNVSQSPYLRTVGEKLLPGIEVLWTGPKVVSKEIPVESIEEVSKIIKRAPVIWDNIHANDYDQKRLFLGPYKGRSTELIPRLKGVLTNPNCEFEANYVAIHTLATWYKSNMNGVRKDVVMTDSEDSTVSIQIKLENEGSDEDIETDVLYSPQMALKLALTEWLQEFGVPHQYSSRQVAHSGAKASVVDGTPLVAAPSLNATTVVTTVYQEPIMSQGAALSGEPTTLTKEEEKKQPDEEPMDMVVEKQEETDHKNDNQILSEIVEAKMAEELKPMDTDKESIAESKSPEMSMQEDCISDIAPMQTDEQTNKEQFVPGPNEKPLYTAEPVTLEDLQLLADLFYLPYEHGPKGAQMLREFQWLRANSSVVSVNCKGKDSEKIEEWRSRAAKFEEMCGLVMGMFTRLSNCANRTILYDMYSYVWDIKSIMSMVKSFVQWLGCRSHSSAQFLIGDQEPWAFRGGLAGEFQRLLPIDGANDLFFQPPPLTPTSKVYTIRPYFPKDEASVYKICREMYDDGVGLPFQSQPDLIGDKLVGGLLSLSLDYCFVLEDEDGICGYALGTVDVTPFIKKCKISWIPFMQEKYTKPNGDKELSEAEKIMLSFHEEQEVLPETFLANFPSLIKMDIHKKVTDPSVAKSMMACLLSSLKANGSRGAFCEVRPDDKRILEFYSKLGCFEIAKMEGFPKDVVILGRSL
# [2] = target: bacterial homolog of O-GlcNAcase from Clostridium perfringens (Clostridium perfringens (strain 13 / Type A), UniProt Q8XL08); conditions: cited from earlier work
# bacterial homolog of O-GlcNAcase from Clostridium perfringens, sequence (Q8XL08 31-1001 limits assumed): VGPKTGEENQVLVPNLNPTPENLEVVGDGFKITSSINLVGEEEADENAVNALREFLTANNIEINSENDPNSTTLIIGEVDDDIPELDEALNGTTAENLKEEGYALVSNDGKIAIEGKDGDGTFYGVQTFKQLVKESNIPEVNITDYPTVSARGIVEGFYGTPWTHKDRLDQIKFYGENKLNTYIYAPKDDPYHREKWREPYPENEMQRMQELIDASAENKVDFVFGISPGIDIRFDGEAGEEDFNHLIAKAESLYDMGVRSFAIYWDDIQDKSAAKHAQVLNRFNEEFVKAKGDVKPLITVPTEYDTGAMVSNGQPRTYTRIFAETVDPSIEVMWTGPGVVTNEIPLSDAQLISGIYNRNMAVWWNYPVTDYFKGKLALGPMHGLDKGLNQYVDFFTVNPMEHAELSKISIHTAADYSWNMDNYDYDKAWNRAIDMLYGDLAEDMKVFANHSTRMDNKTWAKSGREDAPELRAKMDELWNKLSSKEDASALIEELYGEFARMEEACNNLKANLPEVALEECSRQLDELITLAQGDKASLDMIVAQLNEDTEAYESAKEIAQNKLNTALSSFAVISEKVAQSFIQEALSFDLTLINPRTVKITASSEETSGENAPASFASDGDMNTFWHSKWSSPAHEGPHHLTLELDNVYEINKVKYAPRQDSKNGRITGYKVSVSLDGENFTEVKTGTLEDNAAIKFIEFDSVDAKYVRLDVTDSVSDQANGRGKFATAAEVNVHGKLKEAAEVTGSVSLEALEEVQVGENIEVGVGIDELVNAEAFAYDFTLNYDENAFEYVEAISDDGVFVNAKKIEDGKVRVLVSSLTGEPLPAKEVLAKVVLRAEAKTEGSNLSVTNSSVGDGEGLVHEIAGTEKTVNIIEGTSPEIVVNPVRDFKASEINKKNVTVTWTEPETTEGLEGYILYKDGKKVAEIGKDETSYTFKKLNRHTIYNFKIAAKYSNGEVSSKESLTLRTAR
# human O-GlcNAcase = human O-GlcNAcase (Homo sapiens (Human), UniProt O60502); conditions: cited from earlier work
# human O-GlcNAcase, sequence (O60502 whole entry): as the sequence (O60502 whole entry) above
smiles,measurement,setting,value
"CC(=O)Nc1ncc(CN2CCC(=CC(=O)Nc3ccccc3)CC2)s1 [Compound C-1, 2-(1-((2-acetamidothiazol-5-yl)methyl)piperidin-4-ylidene)-N-phenylacetamide]",IC50,[1],310 nM
same,% of inhibition,[1],96.2%
same,melting point,,184 to 185 °C
"CC(=O)Nc1ncc(CN2CCC(=CC(=O)Nc3ccc(F)cc3)CC2)s1 [Compound C-2, 2-(1-((2-acetamidothiazol-5-yl)methyl)piperidin-4-ylidene)-N-(4-fluorophenyl)acetamide]",IC50,[1],170 nM
same,% of inhibition,[1],97.1%
same,melting point,,189 to 191 °C
"CC(=O)Nc1ncc(CN2CCC(=CC(=O)Nc3ccc(Cl)cc3)CC2)s1 [Compound C-3, 2-(1-((2-acetamidothiazol-5-yl)methyl)piperidin-4-ylidene)-N-(4-chlorophenyl)acetamide]",IC50,[1],140 nM
same,% of inhibition,[1],97.3%
same,melting point,,225 to 228 °C
"CC(=O)Nc1ncc(CN2CCC(=CC(=O)Nc3ccc(C(C)C)cc3)CC2)s1 [Compound C-4, 2-(1-((2-acetamidothiazol-5-yl)methyl)piperidin-4-ylidene)-N-(4-isopropylphenyl)acetamide]",IC50,[1],230 nM
same,% of inhibition,[1],97.0%
same,melting point,,232 to 236 °C
"COc1ccc(NC(=O)C=C2CCN(Cc3cnc(NC(C)=O)s3)CC2)cc1 [Compound C-5, 2-(1-((2-acetamidothiazol-5-yl)methyl)piperidin-4 ylidene)-N-(4-methoxyphenyl)acetamide]",IC50,[1],450 nM
same,% of inhibition,[1],94.8%
same,melting point,,212 to 214 °C
"COc1ccc(NC(=O)C=C2CCN(Cc3cnc(NC(C)=O)s3)CC2)cc1OC [Compound C-6, 2-(1-((2-acetamidothiazol-5-yl)methyl)piperidin-4-ylidene)-N-(3,4-dimethoxyphenyl)acetamide]",IC50,[1],350 nM
same,% of inhibition,[1],95.8%
same,melting point,,214 to 219 °C
"COc1ccc(CNC(=O)C=C2CCN(Cc3cnc(NC(C)=O)s3)CC2)cc1 [Compound C-7, 2-(1-((2-acetamidothiazol-5-yl)methyl)piperidin-4-ylidene)-N-(4-methoxybenzyl)acetamide]",IC50,[1],80 nM
same,% of inhibition,[1],98.2%
same,melting point,,222 to 224 °C
"CC(=O)Nc1ncc(CN2CCC(=CC(=O)NC3CCCCC3)CC2)s1 [Compound C-8, 2-(1-((2-acetamidothiazol-5-yl)methyl)piperidin-4-ylidene)-N-cyclohexylacetamide]",% of inhibition,[1],97.7%
same,melting point,,222 to 224 °C
CC(C)C(=O)N[C@H]1c2nc(CCc3ccccc3)cn2[C@H](CO)[C@@H](O)[C@@H]1O [GlcNAcstatin],efficacy,[2],picomolar
CC(=O)N[C@H]1c2nc(CC(=O)O)cn2[C@H](CO)[C@@H](O)[C@@H]1O [gluco-nagstatin],Ki,human O-GlcNAcase,420 nM
